System: non-cancerous human breast cell line MCF-10A
Assay: Cell viability assay
Assay type: cell-based
Settings: for EC50(C)/EC50 (B): selectivity ratio MCF-10A over BT-474; for EC50(C)/EC50(A): selectivity ratio MCF-10A over MCF-7

| Compound | EC50(C)/EC50 (B) | EC50(C)/EC50(A) |
| --- | --- | --- |
| CC[P](CC)(CC)=[Au][S][C@@H]1O[C@H](COC(C)=O)[C@@H](OC(C)=O)[C@H](OC(C)=O)[C@H]1OC(C)=O [AF, [(2R,3R,4S,5R,6S)-3,4,5-tris(acetyloxy)-6-{[(triethyl-λ5-phosphanylidene)aurio]sulfanyl}oxan-2-yl]methyl acetate] | 0.81 ± 0.13 | 0.78 ± 0.11 |
| [Cl][Au].c1ccc(P(c2ccccc2)c2ccccc2)cc1 [[AuCl(PPh3)]] | 5.70 ± 0.43 | 5.30 ± 0.61 |
| [Au(mba)(PPh3)] | 1.57 ± 0.13 | 2.34 ± 0.35 |

Source: paper PMC6691192 (Chemical communications (Cambridge, England), 2019)
